Assays:
[1] = tested on: HeLa S3 human epithelioid cervical carcinoma cells; test: Cellular uptake of fluorescein-labeled dendrimers, quantified by flow cytometry (FACS); format: cell-based; details: for Percentage of Cellular Uptake: 4 hours after treatment, 37° C., average of two experiments; for saturation of uptake into cells: with increasing transporter concentration; for delivery to HeLa S3 cells: qualitative
Procedure: HeLa S3, human epithelioid cervical carcinoma cells of approximately 50% confluency were treated with concentrations varying from 250 nM to 50 μM of each of the molecular transporters 10, 11, 12, 13, and 41 at 37° C. The molecular transporters were directly added to the media (Dulbecco's modified eagle medium containing 10% fetal bovine serum and 1× antibiotic-antimycotic), and the delivery to the cells was visualized by microscopy.
Quantification of the uptake of the molecular transporter into the cells was performed by flow cytometry 4 hours after treatment. Adherent cells, grown on 6 well plates, were displaced with trypsin, after which the cells were washed with phosphate-buffered saline (PBS). The final cell pellet was collected by centrifugation and resuspended in PBS to a concentration of approximately 1×10^6 cells/mL. A minimum of 20,000 cell events were counted and analyzed using the FACSCalibur and CellQuest brand software (BD Biosciences, San Jose, Calif.).

[2] = tested on: HeLa S3 cells; test: Sulphorhodamine B (SRB) cytotoxicity assay; format: cell-based, human; details: 4 hour treatment, concentrations up to 50 μM
Procedure: The cells were treated with varying concentrations (250 nM to 50 μM) of compound 12 for 4 hours at 37° C. The cells were fixed with trichloroacetic acid and were then subsequently stained with SRB dye. The cells were washed with water, and the SRB-bound complexes were solubilized in Tris buffer. The absorbance at 572 nm was measured in each sample.

[3] = Solubility in water observed on isolation; format: physicochemical; details: isolated salt

Compound | Percentage of Cellular Uptake ([1]; 250 nM) | Percentage of Cellular Uptake ([1]; 500 nM) | Percentage of Cellular Uptake ([1]; 1 μM) | Percentage of Cellular Uptake ([1]; 5 μM) | Percentage of Cellular Uptake ([1]; 10 μM) | Percentage of Cellular Uptake ([1]; 25 μM) | Percentage of Cellular Uptake ([1]; 50 μM) | saturation of uptake into cells [1] | delivery to HeLa S3 cells [1] | cell lysis [2] | cytotoxic effect [2] | solubility in H2O [3]
Cl.Cl.Cl.N=C(N)NCCNC(=O)CCOCC(COCCC(=O)NCCNC(=N)N)(COCCC(=O)NCCNC(=N)N)NC(=O)CCNC(=S)Nc1ccc(-c2c3ccc(=O)cc-3oc3cc(O)ccc23)c(C(=O)O)c1 (stereo not shown) [Compound 10] | 1.845% | 2.89% | 2.85% | 12.44% | 27.91% | 59.15% | 92.07% | approximately 100% |  |  |  | 
Cl.Cl.Cl.Cl.Cl.Cl.N=C(N)NCCNC(=O)CCOCC(COCCC(=O)NCCNC(=N)N)(COCCC(=O)NCCNC(=N)N)NC(=O)CCNC(=O)c1cc(C(=O)NCCNC(=O)CCNC(=S)Nc2ccc(-c3c4ccc(=O)cc-4oc4cc(O)ccc34)c(C(=O)O)c2)cc(C(=O)NCCC(=O)NC(COCCC(=O)NCCNC(=N)N)(COCCC(=O)NCCNC(=N)N)COCCC(=O)NCCNC(=N)N)c1 (stereo not shown) [Compound 11] |  |  |  |  |  |  |  | approximately 100% | excellent delivery |  |  | 
Cl.Cl.Cl.Cl.Cl.Cl.Cl.Cl.Cl.N=C(N)NCCNC(=O)CCOCC(COCCC(=O)NCCNC(=N)N)(COCCC(=O)NCCNC(=N)N)NC(=O)CCNC(=O)CCOCC(COCCC(=O)NCCC(=O)NC(COCCC(=O)NCCNC(=N)N)(COCCC(=O)NCCNC(=N)N)COCCC(=O)NCCNC(=N)N)(COCCC(=O)NCCC(=O)NC(COCCC(=O)NCCNC(=N)N)(COCCC(=O)NCCNC(=N)N)COCCC(=O)NCCNC(=N)N)NC(=O)CCNC(=S)Nc1ccc(-c2c3ccc(=O)cc-3oc3cc(O)ccc23)c(C(=O)O)c1 (stereo not shown) [Compound 12] |  |  |  |  |  |  |  | approximately 100% | excellent delivery | did not cause cell lysis | no cytotoxic effect | 
Cl.Cl.Cl.Cl.Cl.Cl.Cl.Cl.Cl.Cl.Cl.Cl.N=C(N)NCCNC(=O)CCOCC(COCCC(=O)NCCNC(=N)N)(COCCC(=O)NCCNC(=N)N)NC(=O)CCNC(=O)CCOCC(COCCC(=O)NCCC(=O)NC(COCCC(=O)NCCNC(=N)N)(COCCC(=O)NCCNC(=N)N)COCCC(=O)NCCNC(=N)N)NC(=O)CCNC(=O)CCOCC(COCCC(=O)NCCC(=O)NC(COCCC(=O)NCCC(=O)NC(COCCC(=O)NCCNC(=N)N)(COCCC(=O)NCCNC(=N)N)COCCC(=O)NCCNC(=N)N)COCCC(=O)NCCC(=O)NC(COCCC(=O)NCCNC(=N)N)(COCCC(=O)NCCNC(=N)N)COCCC(=O)NCCNC(=N)N)NC(=O)CCNC(=S)Nc1ccc(-c2c3ccc(=O)cc-3oc3cc(O)ccc23)c(C(=O)O)c1 (stereo not shown) [Compound 13] |  |  |  |  |  |  |  | approximately 100% | excellent delivery |  |  | 
N=C(N)NCCNC(=O)CCCCCNC(=O)CCNC(=S)Nc1ccc(-c2c3ccc(=O)cc-3oc3cc(O)ccc23)c(C(=O)O)c1 [Compound 41, 5-(3-{2-[5-(2-Guanidinoethylcarbamoyl)-pentylcarbamoyl]-ethyl}-thioureido)-2-(6-hydroxy-3-oxo-3H-xanthen-9-yl)-benzoic acid] | 1.95% | 2.065% | 3.025% | 16.07% | 32.4% | 67.47% | 86.71% | approximately 100% |  |  |  | barely soluble in H2O

— patent publication US20080221020A1, “Dendrimers as Molecular Translocators” (THE REGENTS OF THE UNIVERSITY OF CALIFORNIA, priority 2002, published 2008)
